Literature values as cited in patent US12622907B2, “Hair loss therapy” (NIRMANA BIO, INC., priority 2021, dated 2026).
Read-outs that look alike come from different tables or passages of the source.

Columns and labels:
[1] = test system: men with male pattern hair loss; settings: oral 1 mg/day
943 women and 461 men = settings: for subjects who had to stop treatment because of a side effect: low doses used for hair loss

SMILES: CC(C)(C)NC(=O)[C@H]1CC[C@H]2[C@@H]3CC[C@H]4NC(=O)C=C[C@]4(C)[C@H]3CC[C@]12C [finasteride, Finasteride]
- recipients with no further hair loss compared with baseline (hair counts) ([1]; men with vertex hair loss, after 2 years): 83%
- recipients with improvement in hair growth in global photographs ([1]; men with vertex hair loss, at 1 year): 48%
- recipients with improvement in hair growth in global photographs ([1]; men with vertex hair loss, at 2 years): 66%
- effect on hair growth and hair loss ([1]; significant proportion of men with male pattern hair loss): promotes hair growth and prevents further hair loss

SMILES: Nc1cc(N2CCCCC2)nc(N)[n+]1[O-] [minoxidil, Minoxidil]
- frequency of side effects (943 women and 461 men; low doses which are used to treat hair loss): very uncommon
- subjects who had to stop treatment because of a side effect (943 women and 461 men; men (461)): 0.5%
- subjects who had to stop treatment because of a side effect (943 women and 461 men; women (943)): 2.5%
